For one experiment, the target named is CFTR (Homo sapiens, UniProt P13569). Briefly: Ussing Chamber Electrophysiology Assay of CFTR Potentiation in CF Bronchial Epithelial Cells. The format is cell-based. To be noted: primary CF hBE cells, short-circuit current, scaled to DMSO (0%) and positive control potentiator (100%). The source says:
Ussing Chamber Electrophysiology Assay of CFTR Potentiation in CF Bronchial Epithelial Cells
Primary cystic fibrosis human bronchial epithelial (CF hBE) cells were expanded and cultured according to published methods (Neuberger et al., Ch. 4 of Cystic Fibrosis, Methods in Molecular Biology vol. 741, pp. 39-54 (2011)). Well-differentiated cells (>30 days at air/liquid interface) on Snapwell filters (Corning Costar, cat. no. 3801) were mounted in Ussing chambers (Physiologic Instruments, Inc., San Diego, Calif.). F508del/F508del cultures were assayed at 27° C. and G551D/F508del cells were assayed at 35° C. HEPES buffered physiological saline (composition (in mM): 137 NaCl, 4 KCl, 1 MgCl2, 1.8 CaCl2, 10 HEPES Na) was used in both apical and basolateral chambers. Chambers were bubbled with air to promote mixing and the voltage was clamped to zero. Amiloride (30 uM), forskolin (10 uM), test compound (4 increasing concentrations), and CFTRinh-172 (20 uM) were added sequentially with 20-25 minutes between additions. Short-circuit currents were acquired and analyzed using LabScribe2. Test compound responses were scaled relative to responses for DMSO (0%) and the maximal response of a positive control potentiator (100%).

For another experiment, the target named is F508del V470 CFTR (Homo sapiens, UniProt P13569, DEL508-508). In words: FRT Ion Flux Assay of F508del CFTR Potentiation. In kind it is cell-based. To be noted: FRT cells expressing F508del V470 CFTR and halide-sensitive YFP, forskolin 20 uM, 30 min. How it is done: FRT Ion Flux Assay of F508del CFTR Potentiation
F508del V470 CFTR, sequence (P13569 with tags, fused parts or gaps DEL508-508): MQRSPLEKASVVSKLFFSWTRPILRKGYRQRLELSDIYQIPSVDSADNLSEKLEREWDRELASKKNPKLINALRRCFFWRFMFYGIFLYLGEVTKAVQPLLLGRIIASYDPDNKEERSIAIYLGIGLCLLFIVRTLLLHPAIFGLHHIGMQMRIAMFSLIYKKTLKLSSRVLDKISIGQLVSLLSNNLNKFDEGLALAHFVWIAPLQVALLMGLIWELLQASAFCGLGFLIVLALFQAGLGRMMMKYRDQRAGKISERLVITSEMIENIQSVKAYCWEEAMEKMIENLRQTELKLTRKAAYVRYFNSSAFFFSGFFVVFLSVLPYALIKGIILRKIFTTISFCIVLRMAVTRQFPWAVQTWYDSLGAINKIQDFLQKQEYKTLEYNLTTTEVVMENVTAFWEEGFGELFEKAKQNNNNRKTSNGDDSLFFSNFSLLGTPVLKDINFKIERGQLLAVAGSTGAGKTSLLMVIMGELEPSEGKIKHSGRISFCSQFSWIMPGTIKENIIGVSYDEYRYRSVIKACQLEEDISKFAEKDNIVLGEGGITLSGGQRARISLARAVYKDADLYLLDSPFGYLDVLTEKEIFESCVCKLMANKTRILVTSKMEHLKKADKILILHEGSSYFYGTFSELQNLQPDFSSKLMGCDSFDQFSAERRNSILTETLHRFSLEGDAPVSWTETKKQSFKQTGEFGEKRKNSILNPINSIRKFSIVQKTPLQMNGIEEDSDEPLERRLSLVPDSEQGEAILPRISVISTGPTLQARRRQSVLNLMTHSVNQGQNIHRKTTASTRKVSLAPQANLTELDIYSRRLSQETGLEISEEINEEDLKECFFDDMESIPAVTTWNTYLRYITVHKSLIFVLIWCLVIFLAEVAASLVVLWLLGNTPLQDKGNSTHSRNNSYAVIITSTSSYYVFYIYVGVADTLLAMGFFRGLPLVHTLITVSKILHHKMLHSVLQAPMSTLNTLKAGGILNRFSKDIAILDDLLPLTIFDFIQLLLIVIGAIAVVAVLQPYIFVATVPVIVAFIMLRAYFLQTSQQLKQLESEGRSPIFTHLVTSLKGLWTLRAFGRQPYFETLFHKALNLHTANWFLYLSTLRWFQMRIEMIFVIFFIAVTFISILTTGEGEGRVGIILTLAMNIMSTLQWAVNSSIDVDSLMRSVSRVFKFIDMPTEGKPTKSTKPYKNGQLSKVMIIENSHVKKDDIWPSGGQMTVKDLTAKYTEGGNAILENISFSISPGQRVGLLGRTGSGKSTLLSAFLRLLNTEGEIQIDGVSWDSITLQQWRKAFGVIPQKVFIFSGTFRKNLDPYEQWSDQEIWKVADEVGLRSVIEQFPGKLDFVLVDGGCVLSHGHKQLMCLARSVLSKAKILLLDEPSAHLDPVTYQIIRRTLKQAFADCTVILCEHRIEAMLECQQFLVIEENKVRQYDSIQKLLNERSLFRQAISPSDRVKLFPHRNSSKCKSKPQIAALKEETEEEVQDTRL
Fischer rat thyroid (FRT) cell lines stably expressing recombinant F508del V470 CFTR and halide-sensitive yellow fluorescent protein (Pedemonte et al., J. Clin. Invest. 115(9) 2564-71 (2005)) were seeded at 25,000 cells/well in 50 uL/well of culture medium into black-walled, clear bottom tissue-culture-treated 384-well plates (Corning, cat. no. 3712). After one day, the cells were pre-incubated at 27° C./5% CO2 for 16-24 hours. The cells were then washed with dPBS and treated with forskolin (20 uM) and test compound for 30 min by addition of 20 uL of compound dilution buffer (dPBS containing forskolin and test compound). Plates were loaded into FLIPR384 fluorescence imaging plate reader (Molecular Devices). After an initial fluorescence reading, iodide buffer (25 uL) (composition (in mM): 137 NaI, 1.5 K2PO4, 8.1 NaH2PO4, 2.7 KCl, 0.5 MgCl2, 1 CaCl2) was added and a second fluorescence reading was made after approximately 21 seconds. Data treatment involved division of the second fluorescence reading by the initial fluorescence reading, then scaling of the resulting normalized endpoint fluorescence with respect to the responses for DMSO (0%) and a positive control potentiator (100%).

19 compounds from patent US10131670B2, “Bicyclic heteroaryl derivatives as CFTR potentiators” (CYSTIC FIBROSIS FOUNDATION THERAPEUTICS, INC., priority 2016, dated 2018) can be followed below.

The term EC50 denotes the concentration that produces a half-maximal response.

`CCC(c1cn(-c2ccccc2F)nn1)c1c(C#N)c(-c2cnc(C(F)(F)F)nc2)c2c(N)ncnn12` (single isomer, unassigned) [Example 5, 4-amino-7-{1-[1-(2-fluorophenyl)-1H-1,2,3-triazol-4-yl]propyl}-5-[2-(trifluoromethyl)pyrimidin-5-yl]pyrrolo[2,1-f][1,2,4]triazine-6-carbonitrile]: the EC50 on CFTR stood at 3.02 nM; on F508del V470 CFTR it was 2.13 nM.
The like results for `CCC(c1cn(-c2cc(F)ccc2F)nn1)c1cc(-c2cnc(C(F)(F)F)nc2)c2c(N)ncnn12` (single isomer, unassigned) [Example 62, 7-{1-[1-(2,5-difluorophenyl)-1H-1,2,3-triazol-4-yl]propyl}-5-[2-(trifluoromethyl)pyrimidin-5-yl]pyrrolo[2,1-f][1,2,4]triazin-4-amine] were, in that order, 9.95 nM and 17.6 nM.
For `CCC(c1cn(-c2ccc(F)cc2F)nn1)n1nc(-c2cnc(C(F)(F)F)nc2)c2c(N)ncnc21` (single isomer, unassigned) [Example 99, 1-{1-[1-(2,4-difluorophenyl)-1H-1,2,3-triazol-4-yl]propyl}-3-[2-(trifluoromethyl)pyrimidin-5-yl]-1H-pyrazolo[3,4-d]pyrimidin-4-amine], the EC50 stood at 29.2 nM on CFTR and 37.2 nM on F508del V470 CFTR.
The corresponding values for `CC(c1cn(-c2cc(F)ccc2F)nn1)c1cc(-c2cnc(C(F)(F)F)nc2)c2c(N)ncnn12` (single isomer, unassigned) [Example 98, 7-{1-[1-(2,5-difluorophenyl)-1H-1,2,3-triazol-4-yl]ethyl}-5-[2-(trifluoromethyl)pyrimidin-5-yl]pyrrolo[2,1-f][1,2,4]triazin-4-amine] are 19.8 nM and 26 nM.
The like results for `CCC(c1cn(-c2ccc(F)cc2F)nn1)c1c(C#N)c(-c2cnc(C(F)(F)F)nc2)c2c(N)ncnn12` (single isomer, unassigned) [Example 7, 4-amino-7-{1-[1-(2,4-difluorophenyl)-1H-1,2,3-triazol-4-yl]propyl}-5-[2-(trifluoromethyl)pyrimidin-5-yl]pyrrolo[2,1-f][1,2,4]triazine-6-carbonitrile] were, in that order, 33.5 nM and 45.2 nM.
The like results for `CC(c1cn(-c2ccccc2F)nn1)c1c(C#N)c(-c2cnc(C(F)(F)F)nc2)c2c(N)ncnn12` (single isomer, unassigned) [Example 1, 4-amino-7-{1-[1-(2-fluorophenyl)-1H-1,2,3-triazol-4-yl]ethyl}-5-[2-(trifluoromethyl)pyrimidin-5-yl]pyrrolo[2,1-f][1,2,4]triazine-6-carbonitrile] were, in that order, 51.1 nM and 46.8 nM.
In the case of `CCC(c1cnn(C(C)C)c1)c1c(C#N)c(-c2cnc(C(F)(F)F)nc2)c2c(N)ncnn12` (single isomer, unassigned) [Example 10, 4-amino-7-{1-[1-(propan-2-yl)-1H-pyrazol-4-yl]propyl}-5-[2-(trifluoromethyl)pyrimidin-5-yl]pyrrolo[2,1-f][1,2,4]triazine-6-carbonitrile], the results for the EC50 on CFTR and at F508del V470 CFTR were 48 nM and 95.9 nM, respectively.
The corresponding values for `CCC(c1cn(-c2ccccc2F)nn1)n1nc(-c2cnc(C(F)(F)F)nc2)c2c(N)ncnc21` (single isomer, unassigned) [Example 90, 1-{1-[1-(2-fluorophenyl)-1H-1,2,3-triazol-4-yl]propyl}-3-[2-(trifluoromethyl)pyrimidin-5-yl]-1H-pyrazolo[3,4-d]pyrimidin-4-amine] are 31.5 nM and 31.8 nM.
The corresponding values for `CCC(c1cnn(-c2ccc(F)cc2F)c1)c1c(C#N)c(-c2cnc(C(F)(F)F)nc2)c2c(N)ncnn12` (single isomer, unassigned) [Example 16, 4-amino-7-{1-[1-(2,4-difluorophenyl)-1H-pyrazol-4-yl]propyl}-5-[2-(trifluoromethyl)pyrimidin-5-yl]pyrrolo[2,1-f][1,2,4]thazine-6-carbonitrile] are 0.42 nM and 0.56 nM.
Regarding `CC(c1cc(-c2ccccc2F)no1)c1c(C#N)c(-c2cnc(C(F)(F)F)nc2)c2c(N)ncnn12` (single isomer, unassigned) [Example 19, 4-amino-7-{1-[3-(2-fluorophenyl)-1,2-oxazol-5-yl]ethyl}-5-[2-(trifluoromethyl)pyrimidin-5-yl]pyrrolo[2,1-f][1,2,4]triazine-6-carbonitrile], the concentration for a half-maximal effect (EC50) on CFTR turned out to be 5 nM; on F508del V470 CFTR, 13.8 nM.
The like results for `CCC(c1cn(-c2cc(F)ccc2F)nn1)c1cc(-c2cnc(C(F)(F)F)nc2)c2c(N)ncnn12` (single isomer, unassigned) [Example 61, 7-{1-[1-(2,5-difluorophenyl)-1H-1,2,3-triazol-4-yl]propyl}-5-[2-(trifluoromethyl)pyrimidin-5-yl]pyrrolo[2,1-f][1,2,4]triazin-4-amine] were, in that order, 73.7 nM and 253 nM.
The like results for `CC(O)(c1cn(-c2ccccc2F)nn1)c1cc(-c2cnc(C(F)(F)F)nc2)c2c(N)ncnn12` (single isomer, unassigned) [Example 67, 1-{4-amino-5-[2-(trifluoromethyl)pyrimidin-5-yl]pyrrolo[2,1-f][1,2,4]triazin-7-yl}-1-[1-(2-fluorophenyl)-1H-1,2,3-triazol-4-yl]ethanol] were, in that order, 147 nM and 50.5 nM.
The like results for `CC(c1cn(-c2ccccc2F)nn1)c1cc(-c2cnc(C(F)(F)F)nc2)c2c(N)ncnn12` (single isomer, unassigned) [Example 53, 7-{1-[1-(2-fluorophenyl)-1H-1,2,3-triazol-4-yl]ethyl}-5-[2-(trifluoromethyl)pyrimidin-5-yl]pyrrolo[2,1-f][1,2,4]triazin-4-amine] were, in that order, 171 nM and 76.4 nM.
For the compound `CCC(c1cn(-c2ccc(F)cc2F)nn1)c1cc(-c2cnc(C(F)(F)F)nc2)c2c(N)ncnn12` (single isomer, unassigned) [Example 60, 7-{1-[1-(2,4-difluorophenyl)-1H-1,2,3-triazol-4-yl]propyl}-5-[2-(trifluoromethyl)pyrimidin-5-yl]pyrrolo[2,1-f][1,2,4]triazin-4-amine], the concentration giving a half-maximal response (EC50) is 2 nM on CFTR and 3.36 nM on F508del V470 CFTR.
The corresponding values for `CC(c1cn(-c2ccccc2F)nn1)c1cc(-c2cnc(C(F)(F)F)nc2)c2c(N)ncnn12` (single isomer, unassigned) [Example 54, 7-{1-[1-(2-fluorophenyl)-1H-1,2,3-triazol-4-yl]ethyl}-5-[2-(trifluoromethyl)pyrimidin-5-yl]pyrrolo[2,1-f][1,2,4]triazin-4-amine] are 6.48 nM and 7.4 nM.
Regarding `CC(c1cn(-c2ccc(F)cc2F)nn1)c1cc(-c2cnc(C(F)(F)F)nc2)c2c(N)ncnn12` (single isomer, unassigned) [Example 56, 7-{1-[1-(2,4-difluorophenyl)-1H-1,2,3-triazol-4-yl]ethyl}-5-[2-(trifluoromethyl)pyrimidin-5-yl]pyrrolo[2,1-f][1,2,4]triazin-4-amine], the EC50 is 7.48 nM on CFTR and 8.76 nM on F508del V470 CFTR.
For the compound `CC(c1cnn(-c2ccccc2F)c1)c1c(C#N)c(-c2cnc(C(F)(F)F)nc2)c2c(N)ncnn12` (single isomer, unassigned) [Example 13, 4-amino-7-{1-[1-(2-fluorophenyl)-1H-pyrazol-4-yl]ethyl}-5-[2-(trifluoromethyl)pyrimidin-5-yl]pyrrolo[2,1-f][1,2,4]triazine-6-carbonitrile], the figures for the EC50 on CFTR and at F508del V470 CFTR were 0.42 nM and 0.62 nM, respectively.
The corresponding values for `CCC(c1cnn(-c2ccccc2F)c1)n1nc(-c2cnc(C(F)(F)F)nc2)c2c(N)ncnc21` (single isomer, unassigned) [Example 88, 1-{1-[1-(2-fluorophenyl)-1H-pyrazol-4-yl]propyl}-3-[2-(trifluoromethyl)pyrimidin-5-yl]-1H-pyrazolo[3,4-d]pyrimidin-4-amine] are 31 nM and 78.8 nM.
The corresponding values for `CCC(c1cn(-c2ccc(F)c(F)c2)nn1)c1c(C#N)c(-c2cnc(C(F)(F)F)nc2)c2c(N)ncnn12` (single isomer, unassigned) [Example 9, 4-amino-7-{1-[1-(3,4-difluorophenyl)-1H-1,2,3-triazol-4-yl]propyl}-5-[2-(trifluoromethyl)pyrimidin-5-yl]pyrrolo[2,1-f][1,2,4]triazine-6-carbonitrile] are 28.4 nM and 41.2 nM.
